In US20250287945A1, “COMPOSITIONS FOR FUNGAL CONTROL AND RELATED METHODS” (priority 2021, published 2025):
Values joined by “and” are separate entries in the source; they are usually repeats but may differ in a detail not shown here. Equal entries are not always repeated. “Also recorded” adds a separate entry of the source. Where two headings read alike, the source gives them in different places.

How the values were obtained:
[1] = tested on: Botrytis cinarea (strain CBS 261.71); assay: Botrytis viability colorimetric assay (PrestoBlue resazurin); assay type: cell-based, Botrytis cinerea; details: for viability decrease relative to that obtained with the positive control (fenpiclonil): sentence prints Fusarium in the Botrytis assay
[2] = tested on: conidia of Fusarium proliferatum; assay: oCelloScope live-cell imaging of fungal growth (SESA algorithm); assay type: cell-based
[3] = tested on: Fusarium conidial suspension; assay: Fusarium viability colorimetric assay (PrestoBlue resazurin); assay type: cell-based
Procedure: A Fusarium conidial suspension was prepared from a 7-day culture of Fusarium biomass grown on potato dextrose agar for 7 days, and quantified by hemocytometer, as described in Example 4. Solutions of fenpiclonil (Millipore Sigma, Cat. no. 36532) and of the individual peptides were prepared in 50% (w/v) ethanol in water, and tested using a PrestoBlue™ (resazurin) viability colorimetric assay as described in Example 4.
The Fusarium conidial suspension, peptide or control treatment solution, and potato dextrose broth (Alpha Biosciences, catalogue no. P16-126) were added to each well of a 96-well plate to obtain the desired treatment concentration and 1×10^6 conidia/mL in a final volume of 150 microliters per well. The plates were covered and incubated at 30° C. for 18 hours and 200 rpm. Fifteen microliters of PrestoBlue™ Cell Viability Reagent (Thermofisher Scientific, Cat no. A13262) were added to each well, and the plate was further incubated before measuring fluorescence at 590 nm emission with excitation at 560 nm using a spectrophotometer (BioTek Synergy H1 Microplate Reader, Fischer Scientific, Cat. no. 11-120-533).

[4] = tested on: Aspergillus fumigatus CBS 120.53; assay: Micro broth dilution assay in 96-well plates; assay type: cell-based; details: 3 days of incubation; 375 micromolar or 187.5 micromolar; preliminary
[5] = tested on: Rhizomucor miehei CBS 147454; assay: Micro broth dilution assay in 96-well plates; assay type: cell-based; details: 3 days of incubation; 375 micromolar or 187.5 micromolar; preliminary
[6] = tested on: Mucor circinelloides f. janssenii CBS 204.68; assay: Micro broth dilution assay in 96-well plates; assay type: cell-based; details: 3 days of incubation; 375 micromolar or 187.5 micromolar; preliminary
[7] = tested on: Aspergillus flavus DSM 1959; assay: Micro broth dilution assay in 96-well plates; assay type: cell-based; details: 3 days of incubation; 375 micromolar or 187.5 micromolar; preliminary
[8] = tested on: Fusarium oxysporum CBS 130311; assay: Micro broth dilution assay in 96-well plates; assay type: cell-based; details: 3 days of incubation; 375 micromolar or 187.5 micromolar; preliminary
[9] = tested on: Cryptococcus neoformans DSM 70219; assay: Micro broth dilution assay in 96-well plates; assay type: cell-based; details: 2 days of incubation; 375 micromolar; preliminary
[10] = tested on: Botrytis cinerea; assay: Fungal lesion size on detached Nicotiana benthamiana leaves after topical treatment; assay type: in vivo, Botrytis cinerea on Nicotiana benthamiana leaves
Procedure: In one experiment, leaves of similar age were cut from healthy Nicotiana benthamiana plants and the petioles set into plates containing water agar. Leaves were visually divided into quadrants. […] The plates were covered and placed in a humidified secondary container and incubated in a growth chamber under a 14-hour light (20 degrees C.): 10-hour dark (18 degrees C.) cycle. After 11 days, fungal lesions on leaves were photographed and measured manually with a ruler. Leaves were then destained in 70% ethanol for 48 hours with a change of ethanol at 24 hours, rehydrated in water for at least 1 hour, photographed, and the area of the fungal lesions quantified using ImageJ software (see imagej[dot]nih[dot]gov/ij/). […] The leaf quadrants inoculated with B. cinerea and treated with 100 microliters of treatment solution (MES buffer or HH38 in MES buffer) had comparatively larger areas wetted with liquid. All of the leaf quadrants treated with 5 mM MES buffer developed large (average 1.72 cm width) fungal lesions characterized by grey-black fungal growth. […] […] Twenty microliters of a given treatment mixture were pipetted onto a leaf quadrant (3 replicate leaves per treatment for a total of 12 quadrants). After 7 days incubation in a growth chamber, leaves were photographed, destained in 70% ethanol, photographed again, and the area of the fungal lesions quantified using ImageJ software. […] The fungal lesions in the HH38 treatment were also observed to be 39% smaller than in the 2% DMSO treatment, and 19% smaller than in the 5 mM MES treatment, although not to a statistically significant degree using an unpaired t test.

[11] = 375 micromolar, four replicates
[12] = first experiment, 275 micromolar HH38 in 5 mM MES buffer, after 11 days, lesion area by ImageJ, replicate leaves 1-3
[13] = first experiment, 275 micromolar HH38 in 5 mM MES buffer, after 11 days, ruler, replicate leaves 1-3
[14] = second experiment, inoculum pre-mixed with HH38, 7 days, ImageJ area, not statistically significant

| Sequence | Fusarium cell viability versus untreated / 50% ethanol carrier [3] | Percent Inhibition (Fusarium), Experiment 4, Mean [3] | Percent Inhibition (Fusarium), Experiment 5, Mean [3] | Percent Inhibition (Botrytis), Mean [1, 11] | inhibition of growth / growth pattern [4] | SESA value normalized against the untreated control, mean (x) ([2]; 22 hours) | inhibition of growth / growth pattern [5] | inhibition of growth / growth pattern [6] | inhibition of growth / growth pattern [7] | inhibition of growth / growth pattern [8] | growth / growth pattern [9] | Botrytis cell viability versus untreated / 50% ethanol carrier ([1]; 375 micromolar) | viability decrease relative to that obtained with the positive control (fenpiclonil) ([1]; 375 micromolar) | statistical comparison of normalized values with the untreated control [2] | statistical significance of antifungal activity [2] | also measured |
| --- | --- | --- | --- | --- | --- | --- | --- | --- | --- | --- | --- | --- | --- | --- | --- | --- |
| WCTWKGQPCW [SEQ ID NO: 2182] | decreasing Fusarium cell viability; also recorded: decreased Fusarium cell viability; also recorded: less pronounced | 47.78% | 28.39% |  |  |  |  |  |  |  |  |  |  |  |  | Botrytis cell viability versus untreated / 50% ethanol carrier [1]: decreased Botrytis cell viability; Percent Inhibition (Botrytis), Mean [1]: 8.56%; SESA value normalized against the untreated control, mean (x) [2]: 1.554 and 1.510 |
| WKMGQYHQLPPLW [SEQ ID NO: 2185] | greatly decreased Fusarium cell viability to about the same level as did the positive control | 70.84% | 69.60% | 52.30% |  |  |  |  |  |  |  |  |  |  |  | SESA value normalized against the untreated control, mean (x) ([2]; 250 micromolar (nominal, filtered), 22 hours, 30% potato dextrose broth): 0.850; SESA value normalized against the untreated control, mean (x) ([2]; 375 micromolar (nominal, filtered), 22 hours, 30% potato dextrose broth): 0.439; statistical comparison of normalized values with the untreated control ([2]; nominal concentration of 375 micromolar): significantly lower than the untreated control |
| WCGRPGQPC (REGION 1..9: note = Botrytis spp.) [SEQ ID NO: 2183, Botrytis cinerea alpha pheromone] | decreasing Fusarium cell viability; also recorded: decreased Fusarium cell viability; also recorded: less pronounced | 46.67% | 42.81% | −22.63% | No inhibition of growth | 1.540 and 1.743 | No inhibition of growth | No inhibition of growth | No inhibition of growth | No inhibition of growth | reduced growth |  |  |  |  |  |
| WHWLQLKPGQPMY (listed as Saccharomyces cerevisiae) [SEQ ID NO: 2184, Saccharomyces cerevisiae alpha pheromone] |  | 66.33% | 62.01% | 45.14% | No inhibition of growth |  | No inhibition of growth | No inhibition of growth | No inhibition of growth | No inhibition of growth | reduced growth | decreased Botrytis cell viability | roughly about two-thirds of the viability decrease obtained using the positive control | significantly lower than the untreated control | statistically significant antifungal activity |  |
| GWHWLQLKPGQPMY (listed as Saccharomyces cerevisiae) [SEQ ID NO: 2187, Saccharomyces cerevisiae alpha pheromone with N-terminal glycine] |  |  | 66.96% | 66.96% |  | 0.519 and 0.367 |  |  |  |  |  |  |  | significantly lower than the untreated control | statistically significant antifungal activity |  |
| WHWLQLKPGQPMYWHWLQLKPGQPMY (listed as Saccharomyces cerevisiae) [SEQ ID NO: 2188, Saccharomyces cerevisiae alpha pheromone homodimer with no linker] |  |  | 71.82% | 71.82% |  | 0.330 and 0.351 |  |  |  |  |  | reducing Botrytis cell viability as well as did the fenpiclonil treatment | roughly about two-thirds of the viability decrease obtained using the positive control |  | statistically significant antifungal activity |  |
| WHWLQLKPGQPMYGGGGSWHWLQLKPGQPMY (listed as Saccharomyces cerevisiae) [SEQ ID NO: 2189, Saccharomyces cerevisiae alpha pheromone homodimer including glycine linker] |  |  | 79.77% | 79.77% | sometimes induced changes in growth pattern |  | sometimes induced changes in growth pattern | sometimes induced changes in growth pattern | sometimes induced changes in growth pattern | sometimes induced changes in growth pattern | change this species' growth pattern | reducing Botrytis cell viability as well as did the fenpiclonil treatment | roughly about two-thirds of the viability decrease obtained using the positive control |  | statistically significant antifungal activity | Lesion 1 (cm) ([10]; first experiment, 275 micromolar HH38 in 5 mM MES buffer, 100 microliters per inoculated leaf quadrant, after 11 days, measured with a ruler, replicate leaves 1-3): 0 cm; Lesion 1 (pixels) ([10]; first experiment, 275 micromolar HH38 in 5 mM MES buffer, after 11 days, destained leaves, lesion area by ImageJ, replicate leaves 1-3): 0 pixels; Treatment Average (pixels) ([10]; first experiment, 275 micromolar HH38 in 5 mM MES buffer, after 11 days, lesion area by ImageJ, average of 3 leaves): 157 pixels; Replicate Averages (pixels) ([10]; first experiment, 275 micromolar HH38 in 5 mM MES buffer, after 11 days, lesion area by ImageJ, average of 4 quadrants): 0.00 pixels (2×) and 472 pixels; Lesion 2 (pixels) [10, 12]: 0 pixels (2×) and 1889 pixels; Lesion 3 (pixels) [10, 12]: 0 pixels; Lesion 4 (pixels) [10, 12]: 0 pixels; Treatment Average (cm) ([10]; first experiment, 275 micromolar HH38 in 5 mM MES buffer, after 11 days, ruler, average of 3 leaves): 0.042 cm; Average (cm) per replicate leaf ([10]; first experiment, 275 micromolar HH38 in 5 mM MES buffer, after 11 days, ruler, average of 4 quadrants): 0 cm (2×) and 0.12 cm; Lesion 2 (cm) [10, 13]: 0 cm (2×) and 0.5 cm; Lesion 3 (cm) [10, 13]: 0 cm; Lesion 4 (cm) [10, 13]: 0 cm; leaf quadrants that developed any measurable fungal lesion ([10]; first experiment, result sentence prints 375 micromolar HH38 (method: 275 micromolar), after 11 days): 1 out of 12; fungal lesions smaller than in the 5 mM MES treatment [10, 14]: 19%; fungal lesions smaller than in the 2% DMSO treatment [10, 14]: 39%; fungal lesions smaller than the untreated (diluted grape juice) control ([10]; second experiment, inoculum pre-mixed with in 2% DMSO in 5 mM MES buffer, 7 days, ImageJ area, statistically significant (unpaired t test)): 44% |
| WHWLQLKPGQPMYG (listed as Saccharomyces cerevisiae) [SEQ ID NO: 2186, Saccharomyces cerevisiae alpha pheromone with C-terminal glycine] | greatly decreased Fusarium cell viability to about the same level as did the positive control | 64.21% | 66.45% | 47.30% |  | 1.119 and 0.742 |  |  |  |  |  |  |  | significantly lower than the untreated control | statistically significant antifungal activity |  |
